Structures can show the parent of a compound that is named as a salt.
How the values were obtained:
[1] = In vivo pharmacokinetic study in beagle dogs; conditions: male, dog, plasma, po, gavage, 10 mg/kg
Experimental: With beagle dogs as test animals, the drug concentration in the plasma of beagle dogs at different time points after oral administration of the compound of the present disclosure was determined by using LC/MS/MS. The pharmacokinetic behavior of the compound of the present disclosure in beagle dogs was studied to evaluate its pharmacokinetic characteristics.
Experimental animals: 2 healthy male beagle dogs aged 8 to 36 months per group
Drug preparation: A certain amount of drug was weighed and prepared into a 2 mg/mL colorless clear solution with normal saline.
Administration: Beagle dogs were fasted overnight and administered with the drug by gavage. The dosage of reference 1 and the compound of Example 6 was both 10 mg/kg.
Procedure: Beagle dogs were administered by gavage with the compound of the present disclosure. Approximately 0.6 mL of blood was collected by peripheral venipuncture at 0.25, 0.5, 1, 2, 4, 6, 8, and 24 h after administration. The blood was placed in a tube containing EDTA-K2 and centrifuged at 2000 rpm for 10 min at approximately 4°C to separate the plasma, which was then stored at -75°C.
Determination of the content of the test compound in beagle dog plasma at different blood collection time points: 33 µL of beagle dog plasma (30 µL plasma and 3 µL blank) collected at each time point after administration was added to 18 µL of 6% perchloric acid solution, vortexed for 30 s, and centrifuged at 3900 rpm at 4°C for 15 min. Then, 200 µL of alkaline (pH 10-11 as adjusted with ammonia water) acetonitrile solution containing internal standard dexamethasone was added to precipitate the protein. The mixture was vortexed for 30 s and centrifuged at 3900 rpm at 4°C for 15 min. The supernatant of the plasma sample was taken, diluted 3-fold with water, and 8 µL was taken for LC/MS/MS analysis.
After the blood drug concentration was determined by LC/MS/MS analysis, the pharmacokinetic parameters were calculated using WinNonlin 6.1 software and the non-compartmental model method. Table 1 Pharmacokinetic parameters of the compounds of the present disclosure in beagle dogs

[2] = Long-term accelerated stability test (Test Example 4), sealed in aluminum foil bag (nitrogen-filled); type: physicochemical
[3] = Long-term accelerated stability test (Test Example 3), sealed in aluminum foil bags; type: physicochemical; conditions: for physicochemical stability: 25°C/60%RH and 40°C/75%RH for 6 months
[4] = DVS hygroscopicity test (dynamic moisture sorption); type: physicochemical; conditions: at 80% RH
Experimental: DVS stands for dynamic moisture sorption: using the Surface Measurement Systems instrument, humidity started at 50% and the humidity range investigated was 0%-95% with a step of 10%. The judgment standard is that the mass change of each gradient dM/dT is ≤ 0.002%, TMAX is 360 min, and there are two cycles.

Structure (SMILES): Cl.Cl.Cl.Cl.O=C(O)[C@@H](Cc1cccc(CN(CCOc2cccc(C[C@H](C(=O)O)[C@H]3CCNC3)c2)Cc2cccc(C[C@H](C(=O)O)[C@H]3CCNC3)c2)c1)[C@H]1CCNC1 [Compound A hydrochloride, (2S)-3-(3-{[(2-{3-[(2S)-2-carboxyl-2-[(3R)-pyrrolidin-3-yl]ethyl]phenoxy}ethyl)({3-[(2S)-2-carboxyl-2-[(3R)-pyrrolidin-3-yl]ethyl]phenyl}methyl)amino]methyl}phenyl)-2-[(3R)-pyrrolidin-3-yl]propionic acid tetrahydrochloride]
- AUC ([1]; read-out: Area under curve AUC): 28600 ng·h/mL
- half-life ([1]; read-out: Half life T1/2 (converted)): 18.3 h
- Cmax ([1]; read-out: Maximum blood concentration Cmax): 2470 ng/mL

Structure (SMILES): O=C(O)[C@@H](Cc1cccc(CN(CCOc2cccc(C[C@H](C(=O)O)[C@H]3CCNC3)c2)Cc2cccc(C[C@H](C(=O)O)[C@H]3CCNC3)c2)c1)[C@H]1CCNC1 [free crystal form C, (2S)-3-(3-{[(2-{3-[(2S)-2-carboxyl-2-[(3R)-pyrrolidin-3-yl]ethyl]phenoxy}ethyl)({3-[(2S)-2-carboxyl-2-[(3R)-pyrrolidin-3-yl]ethyl]phenyl}methyl)amino]methyl}phenyl)-2-[(3R)-pyrrolidin-3-yl]propionic acid]
- Crystal form ([2]; 0 day): Crystal form C
- Purity (%) ([2]; 0 day): 99.8%
- Crystal form ([2]; 25°C-60%RH, 1 month): Unchanged
- Purity (%) ([2]; 25°C-60%RH, 1 month): 99.8%
- Crystal form ([2]; 25°C-60%RH, 3 months): Unchanged
- Purity (%) ([2]; 25°C-60%RH, 3 months): 99.7%
- Crystal form ([2]; 25°C-60%RH, 6 months): Unchanged
- Purity (%) ([2]; 25°C-60%RH, 6 months): 99.7%
- Crystal form ([2]; 25°C-60%RH, 7 days): Unchanged
- Purity (%) ([2]; 25°C-60%RH, 7 days): 99.8%
- Crystal form ([2]; 25°C-60%RH, 14 days): Unchanged
- Purity (%) ([2]; 25°C-60%RH, 14 days): 99.8%
- physicochemical stability ([2]; 25°C/60%RH and 40°C/75%RH for 6 months): good
- Crystal form ([2]; 40°C-75%RH, 1 month): Unchanged
- Purity (%) ([2]; 40°C-75%RH, 1 month): 99.8%
- Crystal form ([2]; 40°C-75%RH, 3 months): Unchanged
- Purity (%) ([2]; 40°C-75%RH, 3 months): 99.3%
- Crystal form ([2]; 40°C-75%RH, 6 months): Unchanged
- Purity (%) ([2]; 40°C-75%RH, 6 months): 99.3%
- Crystal form ([2]; 40°C-75%RH, 7 days): Unchanged
- Purity (%) ([2]; 40°C-75%RH, 7 days): 99.8%
- Crystal form ([2]; 40°C-75%RH, 14 days): Unchanged
- Purity (%) ([2]; 40°C-75%RH, 14 days): 99.8%

Structure (SMILES): O=C(O)[C@@H](Cc1cccc(CN(CCOc2cccc(C[C@H](C(=O)O)[C@H]3CCNC3)c2)Cc2cccc(C[C@H](C(=O)O)[C@H]3CCNC3)c2)c1)[C@H]1CCNC1 [hydrochloride (1:1) amorphous form, (2S)-3-(3-{[(2-{3-[(2S)-2-carboxyl-2-[(3R)-pyrrolidin-3-yl]ethyl]phenoxy}ethyl)({3-[(2S)-2-carboxyl-2-[(3R)-pyrrolidin-3-yl]ethyl]phenyl}methyl)amino]methyl}phenyl)-2-[(3R)-pyrrolidin-3-yl]propionic acid]
- Crystal form ([3]; 0 day): Amorphous form
- Purity (%) ([3]; 0 day): 98.8%
- Crystal form ([3]; 25°C-60%RH, 1 month): Crystal form a
- Purity (%) ([3]; 25°C-60%RH, 1 month): 98.7%
- Crystal form ([3]; 25°C-60%RH, 2 months): Crystal form a
- Purity (%) ([3]; 25°C-60%RH, 2 months): 98.6%
- Crystal form ([3]; 25°C-60%RH, 3 months): Crystal form a
- Purity (%) ([3]; 25°C-60%RH, 3 months): 98.2%
- Crystal form ([3]; 25°C-60%RH, 7 days): Unchanged
- Purity (%) ([3]; 25°C-60%RH, 7 days): 98.8%
- Crystal form ([3]; 25°C-60%RH, 14 days): Unchanged
- Purity (%) ([3]; 25°C-60%RH, 14 days): 98.8%
- physicochemical stability [3]: slightly less stable
- Crystal form ([3]; 40°C-75%RH, 1 month): Crystal form a
- Purity (%) ([3]; 40°C-75%RH, 1 month): 97.6%
- Crystal form ([3]; 40°C-75%RH, 2 months): Crystal form a
- Purity (%) ([3]; 40°C-75%RH, 2 months): 95.6%
- Crystal form ([3]; 40°C-75%RH, 3 months): Crystal form a
- Purity (%) ([3]; 40°C-75%RH, 3 months): 95.3%
- Crystal form ([3]; 40°C-75%RH, 7 days): Crystal form a
- Purity (%) ([3]; 40°C-75%RH, 7 days): 98.3%
- Crystal form ([3]; 40°C-75%RH, 14 days): Crystal form a
- Purity (%) ([3]; 40°C-75%RH, 14 days): 98.1%

Structure (SMILES): O=C(O)[C@@H](Cc1cccc(CN(CCOc2cccc(C[C@H](C(=O)O)[C@H]3CCNC3)c2)Cc2cccc(C[C@H](C(=O)O)[C@H]3CCNC3)c2)c1)[C@H]1CCNC1 [hydrochloride (1:1) crystal form a, (2S)-3-(3-{[(2-{3-[(2S)-2-carboxyl-2-[(3R)-pyrrolidin-3-yl]ethyl]phenoxy}ethyl)({3-[(2S)-2-carboxyl-2-[(3R)-pyrrolidin-3-yl]ethyl]phenyl}methyl)amino]methyl}phenyl)-2-[(3R)-pyrrolidin-3-yl]propionic acid]
- DVS hygroscopicity weight gain ([4]; listed as hydrochloride crystal form a): 30%
- Crystal form ([3]; 0 day): Hydrochloride crystal form a
- Purity (%) ([3]; 0 day): 99.9%
- Crystal form ([3]; 25°C-60%RH, 1 month): Unchanged
- Purity (%) ([3]; 25°C-60%RH, 1 month): 99.9%
- Crystal form ([3]; 25°C-60%RH, 3 months): Deliquescent
- Purity (%) ([3]; 25°C-60%RH, 3 months): 99.7%
- Crystal form ([3]; 25°C-60%RH, 6 months): Deliquescent
- Purity (%) ([3]; 25°C-60%RH, 6 months): 98.5%
- Crystal form ([3]; 25°C-60%RH, 7 days): Unchanged
- Purity (%) ([3]; 25°C-60%RH, 7 days): 99.9%
- Crystal form ([3]; 25°C-60%RH, 14 days): Unchanged
- Purity (%) ([3]; 25°C-60%RH, 14 days): 99.9%
- physicochemical stability [3]: slightly less stable
- Crystal form ([3]; 40°C-75%RH, 1 month): Deliquescent
- Purity (%) ([3]; 40°C-75%RH, 1 month): 97.7%
- Crystal form ([3]; 40°C-75%RH, 3 months): Deliquescent
- Purity (%) ([3]; 40°C-75%RH, 3 months): 95.2%
- Crystal form ([3]; 40°C-75%RH, 6 months): Deliquescent
- Purity (%) ([3]; 40°C-75%RH, 6 months): 94.8%
- Crystal form ([3]; 40°C-75%RH, 7 days): Unchanged
- Purity (%) ([3]; 40°C-75%RH, 7 days): 99.8%
- Crystal form ([3]; 40°C-75%RH, 14 days): Unchanged
- Purity (%) ([3]; 40°C-75%RH, 14 days): 98.8%

Structure (SMILES): O=C(O)[C@@H](Cc1cccc(CN(CCOc2cccc(C[C@H](C(=O)O)[C@H]3CCNC3)c2)Cc2cccc(C[C@H](C(=O)O)[C@H]3CCNC3)c2)c1)[C@H]1CCNC1 [hydrochloride (1:1) crystal form e, (2S)-3-(3-{[(2-{3-[(2S)-2-carboxyl-2-[(3R)-pyrrolidin-3-yl]ethyl]phenoxy}ethyl)({3-[(2S)-2-carboxyl-2-[(3R)-pyrrolidin-3-yl]ethyl]phenyl}methyl)amino]methyl}phenyl)-2-[(3R)-pyrrolidin-3-yl]propionic acid]
- DVS hygroscopicity weight gain ([4]; listed as hydrochloride crystal form e): 18%
- Crystal form ([3]; 0 day): Hydrochloride crystal form e
- Purity (%) ([3]; 0 day): 99.9%
- Crystal form ([3]; 25°C-60%RH, 1 month): Unchanged
- Purity (%) ([3]; 25°C-60%RH, 1 month): 99.9%
- Crystal form ([3]; 25°C-60%RH, 3 months): Unchanged
- Purity (%) ([3]; 25°C-60%RH, 3 months): 99.9%
- Crystal form ([3]; 25°C-60%RH, 6 months): Unchanged
- Purity (%) ([3]; 25°C-60%RH, 6 months): 99.9%
- Crystal form ([3]; 25°C-60%RH, 7 days): Unchanged
- Purity (%) ([3]; 25°C-60%RH, 7 days): 99.9%
- Crystal form ([3]; 25°C-60%RH, 14 days): Unchanged
- Purity (%) ([3]; 25°C-60%RH, 14 days): 99.9%
- physicochemical stability [3]: good
- Crystal form ([3]; 40°C-75%RH, 1 month): Unchanged
- Purity (%) ([3]; 40°C-75%RH, 1 month): 99.9%
- Crystal form ([3]; 40°C-75%RH, 3 months): Unchanged
- Purity (%) ([3]; 40°C-75%RH, 3 months): 99.9%
- Crystal form ([3]; 40°C-75%RH, 6 months): Unchanged
- Purity (%) ([3]; 40°C-75%RH, 6 months): 99.9%
- Crystal form ([3]; 40°C-75%RH, 7 days): Unchanged
- Purity (%) ([3]; 40°C-75%RH, 7 days): 99.9%
- Crystal form ([3]; 40°C-75%RH, 14 days): Unchanged
- Purity (%) ([3]; 40°C-75%RH, 14 days): 99.9%

Structure (SMILES): Cl.Cl.Cl.Cl.O=C(O)[C@@H](Cc1cccc(CN(CCOc2cccc(C[C@H](C(=O)O)[C@H]3CCNC3)c2)Cc2cccc(C[C@H](C(=O)O)[C@H]3CCNC3)c2)c1)[C@H]1CCNC1 [hydrochloride (1:4) amorphous form, (2S)-3-(3-{[(2-{3-[(2S)-2-carboxyl-2-[(3R)-pyrrolidin-3-yl]ethyl]phenoxy}ethyl)({3-[(2S)-2-carboxyl-2-[(3R)-pyrrolidin-3-yl]ethyl]phenyl}methyl)amino]methyl}phenyl)-2-[(3R)-pyrrolidin-3-yl]propionic acid tetrahydrochloride]
- Crystal form ([3]; 0 day): Amorphous form
- Purity (%) ([3]; 0 day): 99.8%
- Crystal form ([3]; 25°C-60%RH, 1 month): Unchanged
- Purity (%) ([3]; 25°C-60%RH, 1 month): 99.8%
- Crystal form ([3]; 25°C-60%RH, 2 months): Deliquescent
- Purity (%) ([3]; 25°C-60%RH, 2 months): 99.8%
- Crystal form ([3]; 25°C-60%RH, 3 months): Deliquescent
- Purity (%) ([3]; 25°C-60%RH, 3 months): 99.8%
- Crystal form ([3]; 25°C-60%RH, 6 months): Deliquescent
- Purity (%) ([3]; 25°C-60%RH, 6 months): 99.8%
- Crystal form ([3]; 25°C-60%RH, 7 days): Unchanged
- Purity (%) ([3]; 25°C-60%RH, 7 days): 99.8%
- Crystal form ([3]; 25°C-60%RH, 14 days): Unchanged
- Purity (%) ([3]; 25°C-60%RH, 14 days): 99.8%
- physicochemical stability [3]: slightly less stable
- Crystal form ([3]; 40°C-75%RH, 1 month): Deliquescent
- Purity (%) ([3]; 40°C-75%RH, 1 month): 99.8%
- Crystal form ([3]; 40°C-75%RH, 2 months): Deliquescent
- Purity (%) ([3]; 40°C-75%RH, 2 months): 99.8%
- Crystal form ([3]; 40°C-75%RH, 3 months): Deliquescent
- Purity (%) ([3]; 40°C-75%RH, 3 months): 99.8%
- Crystal form ([3]; 40°C-75%RH, 6 months): Deliquescent
- Purity (%) ([3]; 40°C-75%RH, 6 months): 99.8%
- Crystal form ([3]; 40°C-75%RH, 7 days): Unchanged
- Purity (%) ([3]; 40°C-75%RH, 7 days): 99.8%
- Crystal form ([3]; 40°C-75%RH, 14 days): Unchanged
- Purity (%) ([3]; 40°C-75%RH, 14 days): 99.8%

From patent EP4711355A1, “CRYSTAL FORM OF LIPOPROTEIN COMPOUND AND PREPARATION METHOD THEREFOR” (Jiangsu Hengrui Pharmaceuticals Co., Ltd., priority 2023, dated 2024)
